Results reported in US4668397A, “Novel cyclic octapeptide, method for production of said octapeptide, and ion extracting/separating agent using said octapeptide as principal component” (Agency of Industrial Science & Technology, priority 1984, dated 1987).
Non-standard residues stand in square brackets, D forms with d. Residues, ends and D or L forms follow the SMILES beside them. *: point of attachment. Orn = NCCC[C@H](N)C(=O)O; Cbz = O=C(OCc1ccccc1)*; Boc = CC(C)(C)OC(=O)*; OBn = c1ccc(CO*)cc1; Sar = CNCC(=O)O

Tests used:
[1] = Ion transfer through chloroform phase between two water phases in a U-shaped tube; settings: for Amount of ions transferred: K, 200 μM in chloroform phase, pH 7.5, 10 hours; for transferring ability for potassium ion: from Table 2
Method: (§1) In a U-shaped tube 15 mm in inside diameter, two water phases (a), (b) (each 10 ml) were separated by an intervening chloroform phase (15 ml). In the water phase (a), a chloride of potassium ions and calcium ions (10 mM), picric acid (25 mM), and good buffer HEPES (10 mM) were dissolved and adjusted to pH 7.5 with lithium hydroxide. In the chloroform phase, the compound of this invention was dissolved in a concentration of 200 μM. The two water phases (a), (b) were stirred with a mechanical stirrer and the chloroform phase was stirred with a magnetic stirrer. After 10 hours of stirring, the amount of potassium ions or calcium ions which had been transferred from the water phase (a) through the chloroform phase into the water phase (b) was determined based on the absorption of picrate anion. For comparison, the procedure described above was repeated by using a naturally occurring calcium-ion ionophore A 23187, the cyclic tetrapeptide, i.e. cyclo(glycyl-ε-benzyloxycarbonyl-L-lysyl-sarcosyl-L-prolyl) (D-1), the linear octapeptide, i.e. tertiary butyloxycarbonylglycyl-ε-benzyloxycarbonyl-L-lysyl-sarcosyl-L-propyl-glycyl-ε-benzyloxycarbonyl-L-lysyl-sarcosyl-L-proline methyl ester (E-1), and using no substance dissolved in the chloroform phase.

[2] = Ion transfer through chloroform phase (liquid membrane) between two water phases in a U-shaped tube; settings: for Amount of ions transferred: Ca^2+, 200 μM in chloroform phase, pH 7.5, 10 hours; for transferring ability for calcium ion: from Table 2
Method: as §1

[3] = Extraction equilibrium constant, chloroform / aqueous metal ion chloride and picric acid, absorbance of picrate anion; settings: chloroform/water, pH 7.4, average of five concentrations
Method: The compound (C-1) of this invention obtained in Example 1 was dissolved in concentrations of […] in chloroform. Then 5-ml portions of each of the five solutions so prepared were mixed one each with 5-ml aqueous solutions (pH 7.4) of metallic ion chloride (10 mM), picric acid (25 mM), and good buffer HEPES (10 mM) and shaken for 30 minutes. The shaken mixtures were left stading for one hour. Then, based on the absorbance of picrate anion in the chloroform phase, the extraction equilibrium constants of the compound (C-1) of this invention for the various ions were determined. The results so obtained were compared with those of the comparative cyclic tetrapeptide, i.e. cyclo(glycyl-ε-benzyloxycarbonyl-L-lysyl-sarcosyl-L-prolyl) (D-1), and the linear octapeptide, i.e. tertiary butyloxycarbonylglycyl-ε-benzyloxycarbonyl-L-lysyl-sarcosyl-L-prolylglycyl-ε-benzyloxycarbonyl-[…]-L-proline methyl ester (E-1).
The results expressed as logarithms of the average values obtained by using the five chloroform solutions of varying concentration are shown in Table 1.

[4] = Solution extraction and recovery of calcium ion; settings: 1 g compound in 100 ml chloroform; sample pH 6.9; back-extraction with 2M ammonium chloride and 2M hydrochloric acid
Method: (§2) The amount 100 ml of chloroform solution having dissolved therein 1 g of the compound (C-1) of this invention obtained in Example 1 and 100 ml of a sample solution containing 1 g of magnesium picrate and 100 mg of […] (adjusted to pH 6.9 with acetic acid and sodium acetate) were thoroughly shaken and then left standing for 30 minutes. From the resultant mixture, the chloroform phase was collected. The chloroform phase was washed with 100 ml of an aqueous solution containing 0.01M of lithium picrate (adjusted to pH 6.9 with acetic acid and sodium acetate), followed by collection of chloroform phase. This washing operation was repeated three times to collect the chloroform phase. This chloroform phase was thoroughly shaken with 100 ml of an aqueous solution containing 2M of ammonium chloride and 2M of hydrochloric acid. The shaken mixture was left standing at rest for 30 minutes, followed by collection of the aqueous phase. The aqueous phase was tested for recovery of calcium ion. […] At that time, the concentration of magnesium was 10^-3 times the initial concentration. Thus, by the method of solution extraction using the compound of this invention, calcium ions could be efficiently separated from a large amount of magnesium ions.

[5] = Solution extraction, separation from magnesium; settings: after extraction and recovery of calcium ion; sample with 1 g magnesium picrate
Method: as §2

Row | SMILES | Amount of ions transferred [1] [μ · mol] | Amount of ions transferred [2] [μ · mol] | Logarithm of ion extraction equilibrium constant ([3]; Ba^2+) | Logarithm of ion extraction equilibrium constant ([3]; Ca^2+) | Logarithm of ion extraction equilibrium constant ([3]; K^+) | Logarithm of ion extraction equilibrium constant ([3]; Mg^2+) | Logarithm of ion extraction equilibrium constant ([3]; Na^+) | Logarithm of ion extraction equilibrium constant ([3]; Rb^+) | recovery ratio of calcium ion [4] [%] | concentration of magnesium relative to the initial concentration [5] | transferring ability for potassium ion [1] | transferring ability for calcium ion [2]
1 | CNc1ccc2oc(C[C@H]3O[C@@]4(CC[C@H]3C)O[C@H]([C@H](C)C(=O)c3ccc[nH]3)[C@H](C)C[C@H]4C)nc2c1C(=O)O [Compound A23187] | 0.1 | 4.7 |  |  |  |  |  |  |  |  |  | 
2 | CN1CC(=O)N2CCC[C@H]2C(=O)NCC(=O)N[C@@H](CCCCNC(=O)OCc2ccccc2)C(=O)N(C)CC(=O)N2CCC[C@H]2C(=O)NCC(=O)N[C@@H](CCCCNC(=O)OCc2ccccc2)C1=O [Compound C-1, cyclo(glycyl-ε-benzyloxycarbonyl-L-lysyl-sarcosyl-L-prolyl)2] (cyclo(GK(Cbz)[Sar]PGK(Cbz)[Sar]P)) | 0.5 | 5.4 | 6.0 | 5.6 | 2.6 | 3.4 | 2.3 | 2.6 | 95 | 10^-3 times the initial concentration |  | 
3 | CN1CC(=O)N2CCC[C@H]2C(=O)NCC(=O)N[C@@H](CCCNC(=O)OCc2ccccc2)C(=O)N(C)CC(=O)N2CCC[C@H]2C(=O)NCC(=O)N[C@@H](CCCNC(=O)OCc2ccccc2)C1=O [Compound C-2, cyclo(glycyl-δ-benzyloxycarbonyl-L-ornithyl-sarcosyl-L-prolyl)2] (cyclo(G[Orn](Cbz)[Sar]PG[Orn](Cbz)[Sar]P)) | 0.4 | 5.1 |  |  |  |  |  |  |  |  |  | 
4 | CN1CC(=O)N2CCC[C@H]2C(=O)NCC(=O)N[C@@H](CCC(=O)OCc2ccccc2)C(=O)N(C)CC(=O)N2CCC[C@H]2C(=O)NCC(=O)N[C@@H](CCC(=O)OCc2ccccc2)C1=O [Compound C-3, cyclo(glycyl-γ-benzyl-L-glutamylsarcosyl-L-prolyl)2] (cyclo(E(OBn)[Sar]PGE(OBn)[Sar]PG)) | 0.3 | 4.9 |  |  |  |  |  |  |  |  |  | 
5 | CN1CC(=O)N2CCC[C@H]2C(=O)NCC(=O)N[C@@H](CC(=O)OCc2ccccc2)C(=O)N(C)CC(=O)N2CCC[C@H]2C(=O)NCC(=O)N[C@@H](CC(=O)OCc2ccccc2)C1=O [Compound C-4, cyclo(glycyl-β-benzyl-L-aspartylsarcosyl-L-prolyl)2] (cyclo(D(OBn)[Sar]PGD(OBn)[Sar]PG)) | 0.3 | 4.8 |  |  |  |  |  |  |  |  |  | 
6 | CN1CC(=O)N2CCC[C@H]2C(=O)NCC(=O)N[C@@H](CCCCNC(=O)OCc2ccccc2)C1=O [Compound D-1, cyclo(glycyl-ε-benzyloxycarbonyl-L-lysyl-sarcosyl-L-prolyl)] (cyclo(GK(Cbz)[Sar]P)) | 0.1 | 0.4 | 1.9 | 1.7 | 1.2 | 1.2 | 1.1 | 1.2 |  |  | virtually no transferring ability | virtually no transferring ability
7 | COC(=O)[C@@H]1CCCN1C(=O)CN(C)C(=O)[C@H](CCCCNC(=O)OCc1ccccc1)NC(=O)CNC(=O)[C@@H]1CCCN1C(=O)CN(C)C(=O)[C@H](CCCCNC(=O)OCc1ccccc1)NC(=O)CNC(=O)OC(C)(C)C [Compound E-1, tertiary butyloxycarbonylglycyl-ε-benzyloxycarbonyl-L-lysyl-sarcosyl-L-propyl-glycyl-ε-benzyloxycarbonyl-L-lysyl-sarcosyl-L-proline methyl ester] (Boc-GK(Cbz)[Sar]PGK(Cbz)[Sar]P-OMe) | 0.2 | 0.3 | 1.3 | 1.1 | 0.9 | 0.9 | 0.9 | 0.9 |  |  | virtually no transferring ability | virtually no transferring ability
